Measured values as given in patent US20050112728A1, “Adenosylmethionine synthetase from streptomyces sp gene sequences coding the same and method for mass production for secondary metabolites including antibiotics thereof” (priority 2001, published 2005).

Experiments:
S. lividans TK23 [1] = test: Effect of externally added SAM on productivity of actinorhodin; type: cell-based, Streptomyces lividans; conditions: wild type S. lividans TK23, 1 mM commercially available SAM, FIG. 5
Description: Based on the finding that in vivo over-expressed SAM positively affects production yield of actinorhodin in S. lividans TK23, an effect of SAM on productivity of actinorhodin was investigated when commercially available SAM is added directly to culture medium containing S. lividans TK23. As such, wild type S. lividans TK23 was treated with 1 mM of commercially available SAM.

S. avermitilis = test: Effect of SAM on avermectin production (Exp. 7); type: cell-based; conditions: 1 mM SAM, incubation for 5 days, 25° C.
Description: (§1) Each Streptomyces species was incubated in its corresponding culture medium according to Table 1, and treated with 1 mM of SAM (Sigma, USA). After incubation for 5 days, antibiotic concentration was measured in each culture medium.

S. cinnamonensis = test: Effect of SAM on monensin production (Exp. 8); type: cell-based; conditions: 1 mM SAM, incubation for 5 days, 30° C.
Description: as §1

S. spectabilis = test: Effect of SAM on spectinomycin production (Exp. 9); type: cell-based; conditions: 1 mM SAM, incubation for 5 days, 30° C.
Description: as §1

S. peucetius = test: Effect of SAM on doxorubicin production (Exp. 10); type: cell-based; conditions: 1 mM SAM, incubation for 5 days, 30° C.
Description: as §1

S. griseus = test: Effect of SAM on streptomycin production (Exp. 11); type: cell-based; conditions: 1 mM SAM, incubation for 5 days, 30° C.
Description: as §1

S. aureofaciens [2] = test: Effect of SAM on tetracycline production (Exp. 12); type: cell-based; conditions: 1 mM SAM, incubation for 5 days, 28° C.
Description: as §1

S. aureofaciens [3] = test: Effect of SAM on chlortetracycline production (Exp. 13); type: cell-based; conditions: 1 mM SAM, incubation for 5 days
Description: as §1

[4] = Assay for activity of SAM-s (HPLC analysis of reaction products); type: biochemical, Streptomyces spectabilis ATCC 27741; conditions: protein expressed in E. coli, 5 mM ATP, 5 mM methionine, 120 min at 30° C.
Description: In order to analyze activity of “SAM-s”, the gene encoding “SAM-s” was expressed in E. coli, and the resulting translational product, “SAM-s”, was then isolated.
To express the gene encoding “SAM-s” in E. coli, the gene was inserted into a pET-21a vector, and then introduced into E. coli BL21. The expressed gene product, “SAM-s” was isolated using a His-Tag purification system. Thereafter, 10 to 50 μl of the enzyme solution containing the protein “SAM-s” was added to a reaction mixture containing 100 mM of Tris-HCl, 200 mM of KCl, 10 mM of MgCl2, 1 mM DTT, 5 mM ATP, and 5 mM methionine, followed by incubation for 120 min at 30° C. After the incubation, reaction products were analyzed through HPLC using Reverse C18 column. In this regard, the column loaded with sample was initially equilibrated with a solution of 0.1 M of NaH2PO4/acetonitrile at a ratio of 98:2 (V/V), pH 2.65. Then, a second solution comprising 0.15 M NaH2PO4/acetonitrile at a ratio of 74:26 (V/V) was applied with continuous mixing with the first solution, forming a concentration gradient.

S. lividans TK23 [5] = test: Actinorhodin production in S. lividans TK23 transformed with pSAM-s; type: cell-based, Streptomyces lividans; conditions: over-expression of SAM-s, incubation for 7 days at 28° C., FIG. 4
Description: The gene encoding “SAM-s” was first inserted into pWHM3, which is a shuttle vector between E. coli and Streptomyces species, giving an expression vector pSAM-s. The plasmid pSAM-s was then introduced into S. lividans TK23. The resulting transformant, Streptomyces lividans TK-23 harboring pSAM-s, was deposited in the Korean Culture Center of Microorganisms with accession No. KCCM 10397 on Jul. 2, 2002. The transformant was incubated in one liter of a medium including 50 g of glycerol, 5 g of glutamic acid, 21 g of morpholinopropane sulfonic acid, 200 mg of MgSO47H2O, 100 mg of CaCl22H2O, 100 mg NaCi, 82 mg KH2PO4, 9 mg FeSO47H2O, and 2 ml of trace element solution, adjusted to pH 6.5. During incubation for 7 days at 28° C., production yield of actinorhodin, which is a main antibiotic produced from S. lividans TK23, was analyzed.

Molecule | actinorhodin production versus control not treated with SAM (S. lividans TK23 [1]) | Production amount of a treatment group, Avermectin (S. avermitilis) | Production amount of a treatment group, Monensin (S. cinnamonensis) | Production amount of a treatment group, Spectinomycin (S. spectabilis) | Production amount of a treatment group, Doxorubicin (S. peucetius) | Production amount of a treatment group, Streptomycin (S. griseus) | Production amount of a treatment group, Tetracycline (S. aureofaciens [2]) | Production amount of a treatment group, Chlortetracycline (S. aureofaciens [3]) | activity to synthesize SAM [4] | production of actinorhodin in the transformant in comparison with wild type S. lividans (S. lividans TK23 [5])
C[S+](CC[C@H](N)C(=O)O)C[C@H]1O[C@@H](n2cnc3c(N)ncnc32)[C@H](O)[C@@H]1O (stereo partly drawn) [SAM, S-adenosyl-L-methionine] | produces more actinorhodin | 25 µg/mL | 180 µg/mL | 35 µg/mL | 300 µg/mL | 602 µg/mL | 188 µg/mL | 130 µg/mL |  | 
SAM-s: enzyme catalyzing SAM biosynthesis from Streptomyces spectabilis ATCC 27741, SEQ ID NO. 2 (protein, Steptomyces spectabilis ATCC 27741) MSRRLFTSESVTEGHPDKIADQISDTILDALLREDPTSRVAVETLITTGLVHVAGEVTTKAYAPIAQLVREKILEIGYDSSKKGFDGASCGVSVSIGAQSPDIAQGVDTAYESRVEGDEDELDRQGAGDQGLMFGYACDETPELMPLPIHLAHRLSRRLSEVRKNGTIPYLRPDGKTQVTIEYDGDKAVRLDTVVVSSQHASDIDLESLLAPDIREFVVEPELKALVEDGIKLVVEPELKALVEDGIKLETEGYRLLVNPTGRFEIGGPMGDAGLTGRKIIIDTYGGMSRHGGGAFSGKDPSKVDRSAAYAMRWVAKNVVAAGLASRCEVQVAYAIGKAEPVGLFVETFGTNTIDTDKIEQAISEVFDLRPAAIIRSLDLLRPIYSQTAAYGHFGRSLPEFTWEKTDRVDALRKAAGLES |  |  |  |  |  |  |  |  | has an activity to synthesize SAM | over six times
